Like-named read-outs stand apart in the source and are kept apart here.
Key:
[1] = test system: L. plantarum spoT mutant MS0281; assay: Growth rate in Lacto Synthetic Medium with isobutanol, spoT mutant MS0281; format: cell-based, Lactobacillus plantarum; details: for Growth rate: MS0281, 30° C., LSM
Experimental: (§1) Strains MS0280 and MS0281, and Lactobacillus plantarum PN0512 (ATCC #PTA-7727), were tested for tolerance to isobutanol. The strains were streaked on semi-synthetic medium plates, pH 6 (medium composition: 10 mM ammonium sulfate, 5 mM potassium phosphate buffer, pH 6.0, 50 mM MES, pH 6.0, 2 mM MgCl2, 0.7 mM CaCl2, 50 μM MnCl2, 1 μM FeCl3, 1 μM ZnCl2, 1.72 μM CuCl2, 2.53 μM CoCl2, 2.42 μM Na2MoO4, 2 μM thiamine hydrochloride, 10 mM glucose, 0.01% casamino acids, 0.2% yeast extract and 1.5% agar), from frozen stock cultures. The plates that the two mutants (MS0280 and MS0281) were streaked onto also included chloramphenicol at 10 μg/ml. The plates were incubated overnight at 30° C. under anaerobic conditions. The next day, overnight cultures were started by inoculating Lacto Synthetic Medium (LSM; medium composition: 10 mM ammonium sulfate, 5 mM potassium phosphate buffer, pH 6.0, 50 mM MES, pH 6.0, 2 mM MgCl2, 0.7 mM CaCl2, 50 μM MnCl2, 1 μM FeCl3, 1 μM ZnCl2, 1.72 μM CuCl2, 2.53 μM CoCl2, 2.42 μM Na2MoO4, 2 μM thiamine hydrochloride, 10 mM glucose, 0.01% casamino acids and 0.2% yeast extract) with a diluted (1:6) culture with an initial OD600 of 0.02. These overnight cultures were allowed to incubate at 30° C. in a gently shaking water bath. The next morning, the overnight cultures were diluted to have an initial OD600 of 0.1, in a volume of 220 ml of LSM. These starter cultures were allowed to incubate at 30° C. in a gently shaking water bath for 1.25 hours, to ensure the cultures were not in a lag phase. At this time, 20 ml aliquots were dispensed to duplicate flasks containing different volumes of isobutanol, to give final concentrations of 0, 0.5, 1, 1.5 and 2%. The growth of each flask was followed by taking OD600 readings every hour. The natural log of the OD600 values were plotted on a linear scale vs time.

[2] = test system: Lactobacillus plantarum PN0512; assay: Growth rate in Lacto Synthetic Medium with isobutanol, parental control; format: cell-based; details: for Growth rate: PN0512, 30° C., LSM
Experimental: as §1

[3] = test system: mutant spoT DPD1848 line as compared to wild type EC100; format: cell-based, E. coli; details: for % improved spoT growth over wt: approximately 18 hours, spoT mutant percent growth minus wild type percent growth
Experimental: Kinetic growth studies were performed for the DPD1848 and the control (EC100) using the Bioscreen C Automated Microbial Growth Curve Analyis System (Oy Growth Curves Ab Ltd., Helsinki, Finland), which is an automated 96 well plate system, that monitors growth of many cultures simultaneously, each in a volume of 150 μl. Overnight triplicate cultures of each strain were grown and diluted (1:10) into either LB or LB freshly supplemented with 0.2%, 0.3%. 0.4% or 0.6% 1-butanol (w/v). The growth of each culture was followed for approximately 18 hours. The triplicates were averaged and plotted in FIG. 3 as the final 18 hour time point, normalized to EC100, and given as the percent growth inhibition relative to the no butanol control for each strain.
An additional kinetic growth study was performed as described above. The data is shown in FIG. 4 plotted as OD600 over time for the DPD1848 spoT mutant (A), and wild type (B, EC100).
A Bioscreen experiment, as described in Example 3, was used to compare growth of the mutant spoT DPD1848 line as compared to wild type EC100 in the following chemicals:
The growth of each culture was followed for approximately 18 hours. Triplicate samples were averaged, and expressed as the percent growth relative to the no chemical control for each strain. The data given in Table 8 is represented as percent growth improvement of the spoT mutant relative to wild type, which is the spoT mutant percent growth minus the wild type percent growth for each challenge.

[4] = test system: relA::kan line (strain JW2755) and the parent BW25113; format: cell-based, E. coli K12
Experimental: A strain of E. coli K12 having a kanamycin marker insertion in the relA coding region (relA::kan) is available in the Keio knockout collection that is described in Example 4. Overnight cultures of the relA::kan line (strain JW2755) and the parent BW25113 were inoculated with fresh colonies and grown in LB at 37° C. with shaking. The next day the cultures were diluted 1:100 into 100 ml of fresh LB in a 1 liter flask and grown for approximately 2 hours. The culture was split into 20 ml aliquots in 125 ml plastic screw top flasks. One culture remained unaltered serving as the no add control, and various concentrations of either 2-butanol or isobutanol were added to the remaining flasks. Absorbance (OD600) was monitored over time. Using a 3 hr time point for growth in isobutanol and a 2.5 hr time point for growth in 2-butanol, fractional growth yields were determined and percent improvement was calculated by subtracting […] and multiplying by 100.

[5] = test system: L. plantarum spoT mutant MS0280; assay: Growth rate in Lacto Synthetic Medium with isobutanol, spoT mutant MS0280; format: cell-based, Lactobacillus plantarum; details: for Growth rate: MS0280, 30° C., LSM
Experimental: as §1

[6] = test system: DPD1850 (spoT), DPD1848 (spoT), DPD1865 (rpoZ) and the EC100 control; details: 0.5% (w/v) 1-butanol; LB, 37° C.; FIG. 2
Experimental: After a further 2 hr incubation at 37° C. with shaking, 200 μl samples were transferred to a microtiter plate and optical density at A600 recorded. The microtiter plate was moved to a platform shaker that was located within a plastic box that is in a 37° C. incubator.

[7] = test system: E. coli strain EC100; details: LB agar, closed chamber, 37° C., 1 day
Experimental: LB agar media supplemented with butanol was prepared fresh one day before innoculating at an appropriate volume and cooled for 2 hours in a 50° C. water bath. LB agar plates supplemented with butanol were prepared by dispensing 67 mls of melted agar, using a peristaltic pump and sterile Nalgene tubing, into sterile Omni trays with lids (Nunc mfg no. 242811). […] The plates were allowed to cool and set for approximately an hour before they were stored overnight in closed anaerobic chambers at room temperature in the chemical/biological hood. The next morning, the chambers harboring the plates were opened and allowed to air dry for approximately 1 hour before using.
Plates were incubated in a closed chamber at 37° C. for 1 day. The number of colonies arising and their sizes were scored. […] Butanol concentrations of 0.4% and 0.6% were chosen to screen for tolerance.

[8] = test system: rpoZ insertion line (JW3624) and wild type BW25113; details: 0.4% 1-butanol; FIG. 5
Text: The growth points of triplicate cultures were averaged and plotted in FIG. 5 as absorbance at OD600.

[9] = test system: rpoZ::kan line JW3624 and wild type control BW25113; details: 0.4 and 0.6% 1-butanol; FIG. 8
Experimental: Cultures were grown in LB medium containing 0%, 0.4% or 0.6% 1-butanol in shake flasks. The experiments were performed by inoculating 100 ml of medium in a 250 ml plastic flask with 2 ml of an overnight culture grown from a single colony grown at 37° C. and incubating with shaking for approximately two doubling times (1 hour), to an OD600 between 0.2 and 0.3. Each culture was split into five 25 ml cultures in plastic screw top 125 ml flasks and the cultures were maintained at 37° C. in a shaking water bath at 200 rpm. The OD600 was monitored at 0, 30, 90, 120 190, and 260 minutes.
In the cultures above, a final time point was taken at 18 hr and used to calculate growth yield as a function of 1-butanol challenge. For each line grown in 0, 0.4% or 0.6% 1-butanol, the final 18 hour time point was divided by the no 1-butanol 18 hr time point.

CC(C)CO [isobutanol]
Growth rate ([1]; isobutanol concentration 0.5%): 0.467 μ/hour | Growth rate ([1]; isobutanol concentration 1%): 0.426 μ/hour | Growth rate ([1]; isobutanol concentration 1.5%): 0.397 μ/hour | Growth rate ([1]; isobutanol concentration 2%): 0.359 μ/hour | Growth rate inhibition ([1]; the mutants (MS0281), 0.5% isobutanol, growth rates in presence and absence of isobutanol compared): 5% | Growth rate ([2]; isobutanol concentration 0.5%): 0.424 μ/hour | Growth rate ([2]; isobutanol concentration 1%): 0.385 μ/hour | Growth rate ([2]; isobutanol concentration 1.5%): 0.364 μ/hour | Growth rate ([2]; isobutanol concentration 2%): 0.349 μ/hour | Growth rate inhibition ([2]; the parent (PN0512), 0.5% isobutanol, growth rates in presence and absence of isobutanol compared): 9% | % improved spoT growth over wt ([3]; chemical at 0.80% (w/v)): about 13.5% | % improved spoT growth over wt ([3]; chemical at 0.80% (w/v), listed as IsoBuOH): 13.5% | % improved spoT growth over wt ([3]; chemical at 1.20% (w/v)): 12.1% | % improved spoT growth over wt ([3]; chemical at 1.40% (w/v)): 11.4% | % improved spoT growth over wt ([3]; chemical at 1.60% (w/v)): 10.7% | Percent improvement of fractional growth yield of relA mutant relative to the parent ([4]; 0.8% isobutanol, 3 hr time point, FIG. 10A): small improvement | Growth rate ([5]; isobutanol concentration 0.5%): 0.464 μ/hour | Growth rate ([5]; isobutanol concentration 1%): 0.426 μ/hour | Growth rate ([5]; isobutanol concentration 1.5%): 0.382 μ/hour | Growth rate ([5]; isobutanol concentration 2%): 0.359 μ/hour | Growth rate inhibition ([5]; the mutants (MS0280), 0.5% isobutanol, growth rates in presence and absence of isobutanol compared): 5%

CCC(C)=O [2-butanone]
% improved spoT growth over wt ([3]; chemical at 3% (w/v)): about 3%

CCC(C)=O [MEK, methyl ethyl ketone]
% improved spoT growth over wt ([3]; chemical at 2.50% (w/v)): 0% | % improved spoT growth over wt ([3]; chemical at 3% (w/v)): 3.1% | % improved spoT growth over wt ([3]; chemical at 3.50% (w/v)): 4.3% | % improved spoT growth over wt ([3]; chemical at 4% (w/v)): 33.5%

CCC(C)O (stereo not drawn) [2-butanol]
% improved spoT growth over wt ([3]; chemical at 0.80% (w/v)): about 7% | % improved spoT growth over wt ([3]; chemical at 0.80% (w/v), listed as 2-BuOH): 7.2% | % improved spoT growth over wt ([3]; chemical at 1.20% (w/v)): 0% | % improved spoT growth over wt ([3]; chemical at 1.40% (w/v)): 0% | % improved spoT growth over wt ([3]; chemical at 1.60% (w/v)): 0% | Percent improvement of fractional growth yield of relA mutant relative to the parent ([4]; 0.6% 2-butanol, 2.5 hr time point, FIG. 10B): small improvement | Percent improvement of fractional growth yield of relA mutant relative to the parent ([4]; 0.8% 2-butanol, 2.5 hr time point, FIG. 10B): small improvement

CCCCO [1-butanol]
Growth of spoT and rpoZ lines relative to EC100 (difference between 4 and 2 hr time points) [6]: improved growth | Concentration at which only pinpoint colonies were seen [7]: 0.6% | Concentration from which colonies were progressively smaller [7]: ≥ 0.2% | Concentrations at which no colony formation was observed after overnight incubation [7]: ≥ 0.7 % (w/v) | Butanol tolerant phenotype of rpoZ insertion line (OD600 growth) [8]: butanol tolerant phenotype was seen | Growth yield of rpoZ mutant versus wild type (18 hr time point divided by no 1-butanol 18 hr time point) [9]: higher growth yields than wild type | Tolerance of spoT mutant versus wild type strain in terms of growth rate ([3]; all concentrations of 1-butanol tested (0.2%, 0.3%, 0.4%, 0.6% w/v), FIG. 4): more tolerant | % improved spoT growth over wt ([3]; chemical at 0.2% (w/v)): 11.4% | % improved spoT growth over wt ([3]; chemical at 0.3% (w/v)): 13.8% | % improved spoT growth over wt ([3]; chemical at 0.4% (w/v)): about 16.5% | % improved spoT growth over wt ([3]; chemical at 0.4% (w/v), listed as 1-BuOH): 16.5% | % improved spoT growth over wt ([3]; chemical at 0.6% (w/v)): 9.7%

Reference: patent publication US8372612B2, “Production of four carbon alcohols using improved strain” (Butamax(TM) Advanced Biofuels LLC, priority 2007, dated 2013)
